# Tests used:
# Assay in all cases: Test E pre-/postemergence herbicide test
# [1] = system: bermudagrass; format: in vivo, Cynodon dactylon
# From the text: (§1) Seeds of plant species selected from bipinnate beggarticks (Bidens bipinnata L.), hairy beggarticks (Bidens radiata Thuill.), bermudagrass (Cynodon dactylon (L.) Pers.), Surinam grass (Urochloa decumbens (Staph) R. D. Webster, previously named Brachiaria decumbens Stapf), large crabgrass (Digitaria sanguinalis (L.) Scop.), green foxtail (Setaria viridis (L.) P. Beauv.), goosegrass (Eleusine indica (L.) Gaertn.), johnsongrass (Sorghum halepense (L.) Pers.), kochia (Kochia scoparia (L.) Schrad.), pitted morningglory (Ipomoea lacunosa L.), purple nutsedge (Cyperus rotundus L.), common ragweed (Ambrosia elatior L.), mustard (Brassica nigra (L.) W. D. J. Koch), guineagrass (Panicum maximum Jacq.), dallisgrass (Paspalum dilatatum Poir.), barnyardgrass (Echinochloa crus-galli (L). P. Beauv.), southern sandbur (Cenchrus echinatus L.), common sowthistle (Sonchus oleraceous L.), prickly sida (Sida spinosa L.), Italian ryegrass (Lolium multiflorum Lam.), common purslane (Portulaca oleracea L.), broadleaf signalgrass (Brachiaria platyphylla (Griseb.) Nash), common groundsel (Senecio vulgaris L.), common chickweed (Stellaria media (L.) Vill/Cyr.), tropical spiderwort (Commelina benghalensis L.), annual bluegrass (Poa annua L.), downy bromegrass (Bromus tectorum L.), itchgrass (Rottboellia cochinchinensis (L.) L.f.), quackgrass (Elytrigia repens (L.) Nevski), Canada horseweed (Erigeron Canadensis L.), field bindweed (Convolvulus arvensis L.), spotted spurge (Euphorbia maculata L.), common mallow (Malva sylvestris (=s silvestris) L.), and Russian thistle (Salsola kali L. ssp. Ruthenica (Iljin) Soo) were planted and treated preemergence with test chemicals formulated in a non-phytotoxic solvent mixture which included a surfactant.
# (§2) At the same time, plants selected from these weed species were treated with postemergence applications of some of the test chemicals formulated in the same manner. Plants ranged in height from 2 to 18 cm (1- to 4-leaf stage) for postemergence treatments. Treated plants and controls were maintained in a greenhouse for 12 to 14 days, after which time all species were compared to controls and visually evaluated. Plant response ratings, summarized in Table E, are based on a scale of 0 to 100 where 0 is no effect and 100 is complete control. A dash (-) response means no test result.
# [2] = system: Surinam grass; format: in vivo, Urochloa decumbens
# From the text: as §1, §2
# [3] = system: johnsongrass; format: in vivo, Sorghum halepense
# From the text: as §1, §2
# [4] = system: purple nutsedge; format: in vivo, Cyperus rotundus
# From the text: as §1, §2
# [5] = system: guineagrass; format: in vivo, Panicum maximum
# From the text: as §1, §2
# [6] = system: broadleaf signalgrass; format: in vivo, Brachiaria platyphylla
# From the text: as §1, §2
# [7] = system: itchgrass; format: in vivo, Rottboellia cochinchinensis
# From the text: as §1, §2
# [8] = system: quackgrass; format: in vivo, Elytrigia repens
# From the text: as §1, §2
# [9] = system: field bindweed; format: in vivo, Convolvulus arvensis
# From the text: as §1, §2
# [10] = Postemergence, 500 g ai/ha, scale 0 to 100
# [11] = Postemergence, 250 g ai/ha, scale 0 to 100
# [12] = Preemergence, 62 g ai/ha, scale 0 to 100
# [13] = Preemergence, 125 g ai/ha, scale 0 (no effect) to 100 (complete control)
# [14] = Preemergence, 250 g ai/ha, scale 0 (no effect) to 100 (complete control)
# [15] = Preemergence, 500 g ai/ha, scale 0 (no effect) to 100 (complete control)
# [16] = postemergence, 125 g ai/ha, scale 0 to 100
# [17] = postemergence, 62 g ai/ha, scale 0 to 100
# [18] = Preemergence, 125 g ai/ha, scale 0 to 100
structure (smiles),measurement,setting,value
"CCn1nc(C(C)(C)C)cc1C(=O)Nc1cc(C(=O)N(C)C)ccc1F [Compound 6, N-[5-[(dimethylamino)carbonyl]-2-fluorophenyl]-3-(1,1-dimethylethyl)-1-ethyl-1H-pyrazole-5-carboxamide]","Plant response rating, Bermudagrass",[1]; [10],98
same,"Plant response rating, Bermudagrass",[1]; [11],90
same,"Plant response rating, Bermudagrass",[1]; [12],90
same,"Plant response rating, Bermudagrass",[1]; [13],95
same,"Plant response rating, Bermudagrass",[1]; [14],95
same,"Plant response rating, Bermudagrass",[1]; [15],100
same,"Plant response rating, Bermudagrass",[1]; [16],80
same,"Plant response rating, Bermudagrass",[1]; [17],35
same,"Plant response rating, Surinam Grass",[2]; [10],98
same,"Plant response rating, Surinam Grass",[2]; [11],95
same,"Plant response rating, Surinam Grass",[2]; [12],85
same,"Plant response rating, Surinam Grass",[2]; [18],90
same,"Plant response rating, Surinam Grass",[2]; [15],100
same,"Plant response rating, Surinam Grass",[2]; [16],90
same,"Plant response rating, Surinam Grass",[2]; [17],75
same,"Plant response rating, Johnsongrass",[3]; [10],98
same,"Plant response rating, Johnsongrass",[3]; [11],98
same,"Plant response rating, Johnsongrass",[3]; [12],90
same,"Plant response rating, Johnsongrass",[3]; [13],90
same,"Plant response rating, Johnsongrass",[3]; [14],90
same,"Plant response rating, Johnsongrass",[3]; [15],100
same,"Plant response rating, Johnsongrass",[3]; [16],95
same,"Plant response rating, Johnsongrass",[3]; [17],90
same,"Plant response rating, Nutsedge, Purple",[4]; [12],60
same,"Plant response rating, Nutsedge, Purple",[4]; [13],100
same,"Plant response rating, Nutsedge, Purple",[4]; [14],100
same,"Plant response rating, Nutsedge, Purple",[4]; [15],100
same,"Plant response rating, Nutsedge, Purple",[4]; [16],95
same,"Plant response rating, Nutsedge, Purple",[4]; [17],75
same,"Plant response rating, Guineagrass",[5]; [10],98
same,"Plant response rating, Guineagrass",[5]; [11],95
same,"Plant response rating, Guineagrass",[5]; [12],95
same,"Plant response rating, Guineagrass",[5]; [13],95
same,"Plant response rating, Guineagrass",[5]; [14],95
same,"Plant response rating, Guineagrass",[5]; [15],100
same,"Plant response rating, Guineagrass",[5]; [16],90
same,"Plant response rating, Guineagrass",[5]; [17],80
same,"Plant response rating, Signalgrass",[6]; [10],98
same,"Plant response rating, Signalgrass",[6]; [11],95
same,"Plant response rating, Signalgrass",[6]; [12],75
same,"Plant response rating, Signalgrass",[6]; [13],75
same,"Plant response rating, Signalgrass",[6]; [15],95
same,"Plant response rating, Signalgrass",[6]; [16],90
same,"Plant response rating, Signalgrass",[6]; [17],35
same,"Plant response rating, Itchgrass",[7]; [10],95
same,"Plant response rating, Itchgrass",[7]; [11],95
same,"Plant response rating, Itchgrass",[7]; [12],90
same,"Plant response rating, Itchgrass",[7]; [13],95
same,"Plant response rating, Itchgrass",[7]; [15],95
same,"Plant response rating, Itchgrass",[7]; [16],90
same,"Plant response rating, Itchgrass",[7]; [17],90
same,"Plant response rating, Quackgrass",[8]; [10],98
same,"Plant response rating, Quackgrass",[8]; [11],95
same,"Plant response rating, Quackgrass",[8]; [12],95
same,"Plant response rating, Quackgrass",[8]; [13],100
same,"Plant response rating, Quackgrass",[8]; [15],100
same,"Plant response rating, Quackgrass",[8]; [16],90
same,"Plant response rating, Quackgrass",[8]; [17],80
same,"Plant response rating, Bindweed, Field",[9]; [10],100
same,"Plant response rating, Bindweed, Field",[9]; [11],100
same,"Plant response rating, Bindweed, Field",[9]; [12],30
same,"Plant response rating, Bindweed, Field",[9]; [13],60
same,"Plant response rating, Bindweed, Field",[9]; [15],100
same,"Plant response rating, Bindweed, Field",[9]; [16],95
same,"Plant response rating, Bindweed, Field",[9]; [17],10
CCc1nn(C(C)(C)CC)nc1C(=O)Nc1cccc(C(=O)N(C)C)c1 [Compound 372],"Plant response rating, Bermudagrass",[1]; [12],10
same,"Plant response rating, Bermudagrass",[1]; [18],60
same,"Plant response rating, Bermudagrass",[1]; [14],60
same,"Plant response rating, Bermudagrass",[1]; [15],90
same,"Plant response rating, Surinam Grass",[2]; [18],40
same,"Plant response rating, Surinam Grass",[2]; [15],75
same,"Plant response rating, Johnsongrass",[3]; [12],30
same,"Plant response rating, Johnsongrass",[3]; [18],50
same,"Plant response rating, Johnsongrass",[3]; [14],70
same,"Plant response rating, Johnsongrass",[3]; [15],80
same,"Plant response rating, Nutsedge, Purple",[4]; [12],30
same,"Plant response rating, Nutsedge, Purple",[4]; [14],50
same,"Plant response rating, Nutsedge, Purple",[4]; [15],100
same,"Plant response rating, Guineagrass",[5]; [12],40
same,"Plant response rating, Guineagrass",[5]; [18],80
same,"Plant response rating, Guineagrass",[5]; [14],80
same,"Plant response rating, Guineagrass",[5]; [15],95
same,"Plant response rating, Signalgrass",[6]; [12],0
same,"Plant response rating, Signalgrass",[6]; [18],10
same,"Plant response rating, Signalgrass",[6]; [14],40
same,"Plant response rating, Signalgrass",[6]; [15],60
same,"Plant response rating, Itchgrass",[7]; [12],30
same,"Plant response rating, Itchgrass",[7]; [18],60
same,"Plant response rating, Itchgrass",[7]; [14],60
same,"Plant response rating, Itchgrass",[7]; [15],80
same,"Plant response rating, Quackgrass",[8]; [12],30
same,"Plant response rating, Quackgrass",[8]; [18],60
same,"Plant response rating, Quackgrass",[8]; [14],95
same,"Plant response rating, Quackgrass",[8]; [15],95
same,"Plant response rating, Bindweed, Field",[9]; [12],10
same,"Plant response rating, Bindweed, Field",[9]; [18],10
same,"Plant response rating, Bindweed, Field",[9]; [14],50
same,"Plant response rating, Bindweed, Field",[9]; [15],60
Cc1nn(C(C)(C)C)nc1C(=O)Nc1cccc(C(=O)N(C)C)c1 [Compound 391],"Plant response rating, Bermudagrass",[1]; [12],85
same,"Plant response rating, Bermudagrass",[1]; [18],90
same,"Plant response rating, Bermudagrass",[1]; [14],95
same,"Plant response rating, Bermudagrass",[1]; [15],95
same,"Plant response rating, Surinam Grass",[2]; [18],70
same,"Plant response rating, Surinam Grass",[2]; [15],100
same,"Plant response rating, Johnsongrass",[3]; [12],40
same,"Plant response rating, Johnsongrass",[3]; [18],60
same,"Plant response rating, Johnsongrass",[3]; [14],85
same,"Plant response rating, Johnsongrass",[3]; [15],100
same,"Plant response rating, Nutsedge, Purple",[4]; [14],75
same,"Plant response rating, Nutsedge, Purple",[4]; [15],75
same,"Plant response rating, Guineagrass",[5]; [12],60
same,"Plant response rating, Guineagrass",[5]; [18],80
same,"Plant response rating, Guineagrass",[5]; [14],100
same,"Plant response rating, Guineagrass",[5]; [15],100
same,"Plant response rating, Signalgrass",[6]; [12],40
same,"Plant response rating, Signalgrass",[6]; [18],70
same,"Plant response rating, Signalgrass",[6]; [14],90
same,"Plant response rating, Signalgrass",[6]; [15],90
same,"Plant response rating, Itchgrass",[7]; [12],50
same,"Plant response rating, Itchgrass",[7]; [18],80
same,"Plant response rating, Itchgrass",[7]; [14],90
same,"Plant response rating, Itchgrass",[7]; [15],95
same,"Plant response rating, Quackgrass",[8]; [12],40
same,"Plant response rating, Quackgrass",[8]; [18],90
same,"Plant response rating, Quackgrass",[8]; [14],95
same,"Plant response rating, Quackgrass",[8]; [15],95
same,"Plant response rating, Bindweed, Field",[9]; [12],20
same,"Plant response rating, Bindweed, Field",[9]; [18],90
same,"Plant response rating, Bindweed, Field",[9]; [14],90
same,"Plant response rating, Bindweed, Field",[9]; [15],95
